Laboratory results: paper PMC2211560 (PLoS Medicine, 2008)
Where “and” joins values, the source holds several entries; their conditions need not be identical. Equal values may be shown once.

Columns and labels:
[1] = test system: short-term cultures derived from tumors; test: Ex vivo rapamycin response of short-term tumor cultures (S6 immunoblot); type: cell-based, human; conditions: 0.3 and 3.0 nM, 8 h; rapamycin-sensitive (patients 1 and 3) and rapamycin-resistant (patients 2 and 12) samples
Source text: The lower and upper end of the box corresponds to the 25th and 75th percentile, respectively. The whiskers extend to the 95% range. The Wilcoxon nonparametric group comparison test was used to calculate p-values for the differences between different patient groups. […] The horizontal line inside the box indicates the median value. The lower and upper border of the box corresponds to the 25th and 75th percentile, respectively. The whiskers extend to the 95% range.

[2] = test system: recurrent PTEN-deficient glioblastoma; test: Clinical outcome: time-to-progression and radiographic response; type: in vivo, human; conditions: for TTP: interval between start of rapamycin and postoperative treatment failure, individual patients
Source text: Figure 1 Clinical Trial Design Enrollment in the Phase I clinical trial was restricted to patients whose initial tumor resection (“surgery 1”) specimen was PTEN-deficient by immunohistochemistry. Patients were enrolled after failing standard therapy with radiation and chemotherapy (i.e., “tumor recurrence”).
Patients were allowed two dose reductions.

Akt = test: PRAS40 (threonine 246) phosphorylation in tumor tissue by IHC; type: in vivo, human; conditions: for pPRAS 40 Induction: statistically significant increase S2 vs S1 (p < 0.05, Wilcoxon), individual patients
Source text: The following antibodies were used for IHC: anti-PTEN (6H2.1, #ABM-2052, Cascade BioScience; 1:400 dilution), anti-Ki-67 (MIB-1, M7240, DakoCytomation; 1:100 Dilution), anti-phospho Ser235/236 S6 (91B2, #4857, Cell Signaling; 1:50 dilution), anti phospho Ser240/244 S6 (#2215, Cell Signaling; 1:200 dilution), anti-phospho-PRAS 40 (#44–1100G, Biosource; 1:200 dilution), anti-phospho Ser473 Akt (736E11, #3787, Cell Signaling; 1:50 dilution), anti-phospho Thr389 p70 S6 Kinase (#9205, Cell Signaling; 1:100 Dilution), and anti phospho Ser1108 eIF4G at 1:400 (#2441, Cell Signaling; 1:400 dilution). Antigen retrieval was performed using 0.01 M citrate buffer, pH 6.0 for 30 min in an oven and peroxidase activity was quenched with 3% hydrogen peroxide in water. Primary antibodies were diluted in PBS /2% bovine serum albumin/2% normal horse serum (for anti-PTEN) or TBS/0.1% Tween/5% normal goat serum (for phosphosite-specific antibodies) and applied overnight at 4 °C. Biotinylated secondary antibodies (Vector) were applied at 1:200 dilution for 45 min, and the avidin-biotin complex (Elite ABC, Vector) for 30 min. Vector NovaRed was used as the enzyme substrate to visualize specific antibody localization. […] All slides were counterstained with Harris hematoxylin.
We assessed Akt activity in S1 and S2 samples in the rapamycin-treated patients using phosphosite-specific antibodies against the serine/threonine kinase Akt (serine 473) and its downstream substrate PRAS 40 (threonine 246), which serves as a biomarker for Akt activity (Figure 4A). PRAS40 has also been recently shown to inhibit mTOR, and this inhibition is relieved by Akt phosphorylation.
Scoring of immunohistochemical stains. […] Digital scores for PTEN, phospho-S6, and phospho-PRAS40 are based on absolute staining intensity of tumor cells as quantified following false-color conversion. PTEN, phospho-S6, phospho-PRAS40, and Ki-67 were scored in representative and matching areas of consecutive tissue sections (Suppl. Fig. 1), excluding areas with large vessels and/or prominent reactive changes (e.g., reactive astrogliosis or lymphocytic infiltration). […] Quantitative analysis was done using HSI color algorithm based on hue, saturation and intensity. Saturations of the separated cell in the images were quantified in the red-brown hue range to exclude the negative staining area with hematoxylin nuclear staining. To compare the staining intensity of all slides, mean saturation of total cells on each image was quantified and calculated. For Ki-67 staining scoring, separated cells were quantified with red brown hue range (positive staining) and total hue range (all cells) after cell border separation and Ki-67 labeling index was calculated based on these numbers. […]

## CO[C@H]1C[C@@H]2CC[C@@H](C)[C@@](O)(O2)C(=O)C(=O)N2CCCC[C@H]2C(=O)O[C@H]([C@H](C)C[C@@H]2CC[C@@H](O)[C@H](OC)C2)CC(=O)[C@H](C)/C=C(\C)[C@@H](O)[C@@H](OC)C(=O)[C@H](C)C[C@H](C)/C=C/C=C/C=C/1C [Rapamycin]
[1]
  S6 phosphorylation ex vivo: inhibited equally
[2]; 2 mg oral daily
  TTP: 62 days and 40 days and 70 days
[2]; 5 mg oral daily
  TTP: 194 days and 69 days and 144 days and 153 days and 42 days
[2]; 10 mg oral daily
  TTP: 39 days and 538 days and 98 days and 146 days and 99 days and 55 days
[2]; Patient 8, extended neoadjuvant course (25 d), 5 mg, prior to surgery
  tumor regression by magnetic resonance imaging: > 50%
[2]; Patient 11
  duration of radiographically stable disease postoperatively: > 16 mo
[2]; Patient 11, 10 mg
  time from starting rapamycin to death without evidence of tumor recurrence: 538 days
[2]; single-agent rapamycin, study patients
  Radiographic Response to Rapamycin: 2/15
Akt; 2 mg oral daily
  pPRAS 40 Induction: Yes
Akt; 5 mg oral daily
  pPRAS 40 Induction: No and Yes
Akt; 10 mg oral daily
  pPRAS 40 Induction: Yes and No
Akt; Seven of 14 patients, p < 0.05, Wilcoxon test
  patients with statistically significant increase in PRAS40 phosphorylation in S2 sample: 50%
